Results reported in ChEMBL document CHEMBL4507268 (2021).

Tests used:
[1] = molecular target: Tyrosine-protein kinase JAK1 (Homo sapiens) (UniProt P23458); details: Compound concentration 1000.0 nM
[2] = molecular target: SRSF protein kinase 2 (Homo sapiens) (UniProt P78362); details: Compound concentration 1000.0 nM
[3] = molecular target: Ribosomal protein S6 kinase alpha-2 (Homo sapiens) (UniProt Q15349); details: Compound concentration 1000.0 nM
[4] = molecular target: Phosphatidylinositol 4,5-bisphosphate 3-kinase catalytic subunit delta isoform (Homo sapiens) (UniProt O00329); details: Compound concentration 1000.0 nM
[5] = molecular target: Ribosomal protein S6 kinase alpha-3 (Homo sapiens) (UniProt P51812); details: Compound concentration 1000.0 nM
[6] = molecular target: Cyclin-dependent kinase-like 3 (Homo sapiens) (UniProt Q8IVW4); details: Compound concentration 1000.0 nM
[7] = molecular target: Serine/threonine-protein kinase PAK 1 (Homo sapiens) (UniProt Q13153); details: Compound concentration 1000.0 nM
[8] = molecular target: Mitogen-activated protein kinase kinase kinase kinase 4 (Homo sapiens) (UniProt O95819); details: Compound concentration 1000.0 nM
[9] = molecular target: Beta-2 adrenergic receptor (Homo sapiens) (UniProt P07550); details: Compound concentration 10.0 uM
[10] = system: Phosphatidylinositol 4,5-bisphosphate 3-kinase catalytic subunit alpha isoform (Homo sapiens), P42336 [Q546K]; details: Compound concentration 1000.0 nM
[11] = molecular target: Cytoplasmic tyrosine-protein kinase BMX (Homo sapiens) (UniProt P51813); details: Compound concentration 1000.0 nM
[12] = molecular target: T1, Serine/threonine-protein kinase DCLK3 (Homo sapiens) (UniProt Q9C098); details: Compound concentration 1000.0 nM
T1 sequence (whole entry): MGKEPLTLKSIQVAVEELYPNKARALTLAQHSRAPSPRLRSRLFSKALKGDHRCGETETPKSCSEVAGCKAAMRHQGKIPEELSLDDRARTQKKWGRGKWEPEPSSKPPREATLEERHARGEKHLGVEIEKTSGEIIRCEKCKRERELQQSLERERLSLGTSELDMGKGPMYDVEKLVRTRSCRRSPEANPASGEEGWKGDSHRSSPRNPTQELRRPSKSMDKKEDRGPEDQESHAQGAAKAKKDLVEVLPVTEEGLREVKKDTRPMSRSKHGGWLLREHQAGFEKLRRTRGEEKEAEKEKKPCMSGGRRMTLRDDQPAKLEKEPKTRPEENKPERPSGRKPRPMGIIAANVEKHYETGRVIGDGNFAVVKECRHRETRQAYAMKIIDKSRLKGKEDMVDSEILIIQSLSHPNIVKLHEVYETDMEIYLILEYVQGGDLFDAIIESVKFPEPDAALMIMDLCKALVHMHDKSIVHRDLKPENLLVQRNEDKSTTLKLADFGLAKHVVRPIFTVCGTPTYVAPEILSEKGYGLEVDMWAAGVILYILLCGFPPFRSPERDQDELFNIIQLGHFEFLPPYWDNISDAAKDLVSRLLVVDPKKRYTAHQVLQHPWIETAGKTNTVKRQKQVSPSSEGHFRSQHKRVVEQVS

[13] = molecular target: Serine/threonine-protein kinase OSR1 (Homo sapiens) (UniProt O95747); details: Compound concentration 1000.0 nM
[14] = molecular target: T2, NUAK family SNF1-like kinase 1 (Homo sapiens) (UniProt O60285); details: Compound concentration 1000.0 nM
T2 sequence (whole entry): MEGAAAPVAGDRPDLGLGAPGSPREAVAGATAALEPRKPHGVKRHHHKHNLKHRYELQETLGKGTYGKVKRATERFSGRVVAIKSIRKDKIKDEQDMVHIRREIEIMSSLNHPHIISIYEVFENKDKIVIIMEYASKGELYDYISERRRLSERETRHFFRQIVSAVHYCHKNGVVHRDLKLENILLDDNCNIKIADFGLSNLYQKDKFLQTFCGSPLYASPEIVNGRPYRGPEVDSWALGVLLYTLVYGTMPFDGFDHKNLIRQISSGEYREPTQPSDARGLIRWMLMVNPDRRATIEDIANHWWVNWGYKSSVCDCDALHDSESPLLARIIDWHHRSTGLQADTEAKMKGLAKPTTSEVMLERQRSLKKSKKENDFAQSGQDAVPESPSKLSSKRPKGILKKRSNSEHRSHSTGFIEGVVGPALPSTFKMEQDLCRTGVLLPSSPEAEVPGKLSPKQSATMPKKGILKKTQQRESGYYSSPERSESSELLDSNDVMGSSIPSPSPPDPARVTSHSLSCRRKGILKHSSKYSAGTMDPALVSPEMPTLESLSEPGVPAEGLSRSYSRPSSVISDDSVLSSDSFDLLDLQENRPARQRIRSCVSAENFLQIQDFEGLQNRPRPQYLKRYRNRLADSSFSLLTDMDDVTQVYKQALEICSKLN

[15] = molecular target: Alpha-1B adrenergic receptor (Homo sapiens) (UniProt P35368); details: Compound concentration 10.0 uM
[16] = molecular target: Serine/threonine-protein kinase LATS2 (Homo sapiens) (UniProt Q9NRM7); details: Compound concentration 1000.0 nM
[17] = system: Proto-oncogene tyrosine-protein kinase receptor Ret (Homo sapiens), P07949 [V804L]; details: Compound concentration 1000.0 nM
[18] = molecular target: Receptor-type tyrosine-protein kinase FLT3 (Homo sapiens) (UniProt P36888); details: Compound concentration 1000.0 nM
[19] = molecular target: Mitogen-activated protein kinase kinase kinase 14 (Homo sapiens) (UniProt Q99558); details: Compound concentration 1000.0 nM
[20] = molecular target: Calcium/calmodulin-dependent protein kinase type 1G (Homo sapiens) (UniProt Q96NX5); details: Compound concentration 1000.0 nM
[21] = molecular target: Phosphatidylinositol 4,5-bisphosphate 3-kinase catalytic subunit alpha isoform (Homo sapiens) (UniProt P42336); details: Compound concentration 1000.0 nM
[22] = molecular target: BMP-2-inducible protein kinase (Homo sapiens) (UniProt Q9NSY1); details: Compound concentration 1000.0 nM
[23] = system: Receptor-type tyrosine-protein kinase FLT3 (Homo sapiens), P36888 [D835V]; details: Compound concentration 1000.0 nM
[24] = molecular target: Serine/threonine-protein kinase 36 (Homo sapiens) (UniProt Q9NRP7); details: Compound concentration 1000.0 nM

Chain of SRSF protein kinase 2 (Homo sapiens) (P78362 whole entry, looked up): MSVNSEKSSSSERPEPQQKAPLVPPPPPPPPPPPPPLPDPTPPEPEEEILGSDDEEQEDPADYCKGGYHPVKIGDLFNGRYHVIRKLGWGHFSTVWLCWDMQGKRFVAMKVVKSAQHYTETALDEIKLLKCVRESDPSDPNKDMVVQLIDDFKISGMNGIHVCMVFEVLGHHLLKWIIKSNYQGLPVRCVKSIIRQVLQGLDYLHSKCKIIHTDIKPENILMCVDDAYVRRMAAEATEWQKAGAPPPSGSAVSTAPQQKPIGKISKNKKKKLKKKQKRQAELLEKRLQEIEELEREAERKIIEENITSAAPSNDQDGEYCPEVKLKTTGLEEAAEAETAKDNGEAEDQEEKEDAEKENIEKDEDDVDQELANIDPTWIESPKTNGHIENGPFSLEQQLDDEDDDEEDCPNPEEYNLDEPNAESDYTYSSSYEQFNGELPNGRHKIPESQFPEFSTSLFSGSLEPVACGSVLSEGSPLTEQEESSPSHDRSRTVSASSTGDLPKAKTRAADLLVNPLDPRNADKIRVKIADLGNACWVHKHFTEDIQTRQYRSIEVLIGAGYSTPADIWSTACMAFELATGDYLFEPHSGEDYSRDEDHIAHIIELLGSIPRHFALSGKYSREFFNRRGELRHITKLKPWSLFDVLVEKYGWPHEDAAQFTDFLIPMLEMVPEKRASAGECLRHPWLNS
Chain of Phosphatidylinositol 4,5-bisphosphate 3-kinase catalytic subunit alpha isoform (Homo sapiens), P42336 [Q546K] (P42336 whole entry Q546K, canonical isoform): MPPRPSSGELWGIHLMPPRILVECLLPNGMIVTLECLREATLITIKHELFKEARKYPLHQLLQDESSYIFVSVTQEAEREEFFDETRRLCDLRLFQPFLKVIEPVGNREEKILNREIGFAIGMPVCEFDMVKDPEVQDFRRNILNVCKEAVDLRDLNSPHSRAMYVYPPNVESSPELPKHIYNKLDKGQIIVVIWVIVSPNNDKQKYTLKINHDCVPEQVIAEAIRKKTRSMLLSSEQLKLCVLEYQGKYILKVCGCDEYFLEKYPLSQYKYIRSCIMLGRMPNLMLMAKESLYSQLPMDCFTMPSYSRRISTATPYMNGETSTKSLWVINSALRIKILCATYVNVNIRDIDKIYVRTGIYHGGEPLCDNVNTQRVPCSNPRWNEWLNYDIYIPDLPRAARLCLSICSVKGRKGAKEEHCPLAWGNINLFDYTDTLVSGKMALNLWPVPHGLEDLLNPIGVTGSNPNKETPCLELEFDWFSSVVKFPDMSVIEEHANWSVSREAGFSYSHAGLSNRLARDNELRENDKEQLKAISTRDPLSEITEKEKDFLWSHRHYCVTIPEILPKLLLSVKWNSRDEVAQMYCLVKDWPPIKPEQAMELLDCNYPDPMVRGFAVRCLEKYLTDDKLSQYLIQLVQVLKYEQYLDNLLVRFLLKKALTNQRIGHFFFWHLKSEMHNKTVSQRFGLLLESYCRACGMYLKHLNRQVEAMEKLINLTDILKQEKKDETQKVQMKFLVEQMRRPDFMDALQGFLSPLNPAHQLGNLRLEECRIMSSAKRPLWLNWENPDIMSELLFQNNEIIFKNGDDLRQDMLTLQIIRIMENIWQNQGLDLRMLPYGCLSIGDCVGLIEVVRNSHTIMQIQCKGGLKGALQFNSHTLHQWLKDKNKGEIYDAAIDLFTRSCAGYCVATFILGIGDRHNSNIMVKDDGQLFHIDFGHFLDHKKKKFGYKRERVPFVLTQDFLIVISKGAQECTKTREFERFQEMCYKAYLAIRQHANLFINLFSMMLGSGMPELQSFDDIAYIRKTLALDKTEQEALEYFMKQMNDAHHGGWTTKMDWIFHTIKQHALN
Chain of Ribosomal protein S6 kinase alpha-2 (Homo sapiens) (Q15349 whole entry, canonical isoform): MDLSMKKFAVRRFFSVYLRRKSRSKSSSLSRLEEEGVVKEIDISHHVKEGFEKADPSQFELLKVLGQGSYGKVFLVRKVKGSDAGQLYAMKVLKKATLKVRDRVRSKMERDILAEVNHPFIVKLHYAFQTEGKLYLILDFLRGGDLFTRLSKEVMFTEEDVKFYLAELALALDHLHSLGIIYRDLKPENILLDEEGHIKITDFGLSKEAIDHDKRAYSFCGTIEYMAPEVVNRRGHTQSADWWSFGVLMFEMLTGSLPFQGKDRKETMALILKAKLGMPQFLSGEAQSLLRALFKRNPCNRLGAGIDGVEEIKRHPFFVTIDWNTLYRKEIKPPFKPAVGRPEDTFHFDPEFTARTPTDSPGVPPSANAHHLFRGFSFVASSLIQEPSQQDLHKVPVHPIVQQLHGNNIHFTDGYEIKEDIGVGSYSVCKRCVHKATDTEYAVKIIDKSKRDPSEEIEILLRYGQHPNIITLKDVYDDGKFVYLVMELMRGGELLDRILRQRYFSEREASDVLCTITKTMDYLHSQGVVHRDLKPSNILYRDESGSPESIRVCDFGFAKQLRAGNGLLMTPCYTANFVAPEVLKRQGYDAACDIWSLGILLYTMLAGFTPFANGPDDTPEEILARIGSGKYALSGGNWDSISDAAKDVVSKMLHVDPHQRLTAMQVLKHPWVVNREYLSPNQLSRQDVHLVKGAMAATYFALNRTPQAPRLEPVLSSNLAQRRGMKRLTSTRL
Chain of BMP-2-inducible protein kinase (Homo sapiens) (Q9NSY1 whole entry, looked up): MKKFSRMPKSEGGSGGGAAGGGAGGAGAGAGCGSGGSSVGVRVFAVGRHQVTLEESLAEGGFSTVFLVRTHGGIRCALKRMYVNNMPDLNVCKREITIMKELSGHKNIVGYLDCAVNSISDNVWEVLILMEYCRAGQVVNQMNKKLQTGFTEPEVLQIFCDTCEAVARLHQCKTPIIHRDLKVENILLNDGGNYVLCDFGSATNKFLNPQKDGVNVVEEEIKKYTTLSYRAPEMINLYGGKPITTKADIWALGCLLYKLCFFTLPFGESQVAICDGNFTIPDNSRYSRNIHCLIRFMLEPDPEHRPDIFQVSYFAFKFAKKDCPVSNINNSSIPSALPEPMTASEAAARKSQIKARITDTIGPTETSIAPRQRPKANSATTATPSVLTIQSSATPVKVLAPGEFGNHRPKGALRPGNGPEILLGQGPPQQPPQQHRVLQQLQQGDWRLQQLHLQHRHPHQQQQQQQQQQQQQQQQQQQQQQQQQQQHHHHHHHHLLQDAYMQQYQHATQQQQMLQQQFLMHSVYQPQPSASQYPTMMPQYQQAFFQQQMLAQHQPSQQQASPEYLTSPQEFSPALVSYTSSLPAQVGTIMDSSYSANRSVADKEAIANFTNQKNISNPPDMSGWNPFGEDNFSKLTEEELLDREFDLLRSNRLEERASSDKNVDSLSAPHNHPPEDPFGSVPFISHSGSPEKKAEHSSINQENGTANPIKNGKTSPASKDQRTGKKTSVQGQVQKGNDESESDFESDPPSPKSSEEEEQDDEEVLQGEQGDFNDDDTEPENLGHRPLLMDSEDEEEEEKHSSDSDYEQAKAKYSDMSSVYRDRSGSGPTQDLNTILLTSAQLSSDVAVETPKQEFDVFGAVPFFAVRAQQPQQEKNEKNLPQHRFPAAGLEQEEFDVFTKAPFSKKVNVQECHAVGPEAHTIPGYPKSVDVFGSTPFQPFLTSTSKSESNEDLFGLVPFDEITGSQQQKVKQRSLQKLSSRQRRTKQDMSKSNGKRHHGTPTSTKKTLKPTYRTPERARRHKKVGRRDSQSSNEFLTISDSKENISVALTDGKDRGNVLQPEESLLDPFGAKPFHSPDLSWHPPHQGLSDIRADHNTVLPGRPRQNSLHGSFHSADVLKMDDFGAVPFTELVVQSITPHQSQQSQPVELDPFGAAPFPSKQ
Chain of Cyclin-dependent kinase-like 3 (Homo sapiens) (Q8IVW4 whole entry, looked up): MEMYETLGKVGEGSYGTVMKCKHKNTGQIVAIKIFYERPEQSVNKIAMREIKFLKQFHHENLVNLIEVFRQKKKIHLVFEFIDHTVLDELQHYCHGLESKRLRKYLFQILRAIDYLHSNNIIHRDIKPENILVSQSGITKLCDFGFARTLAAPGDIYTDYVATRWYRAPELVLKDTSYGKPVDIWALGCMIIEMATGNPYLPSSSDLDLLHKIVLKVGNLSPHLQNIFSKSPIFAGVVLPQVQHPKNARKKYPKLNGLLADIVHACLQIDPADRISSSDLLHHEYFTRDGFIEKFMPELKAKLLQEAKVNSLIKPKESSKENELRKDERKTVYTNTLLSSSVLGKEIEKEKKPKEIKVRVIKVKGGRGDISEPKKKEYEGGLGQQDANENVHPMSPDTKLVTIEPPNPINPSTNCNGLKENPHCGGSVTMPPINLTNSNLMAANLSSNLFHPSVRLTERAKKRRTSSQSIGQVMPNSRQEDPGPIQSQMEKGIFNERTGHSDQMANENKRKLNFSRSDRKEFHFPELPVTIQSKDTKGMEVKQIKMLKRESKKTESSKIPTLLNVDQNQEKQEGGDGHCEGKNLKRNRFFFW
Chain of Ribosomal protein S6 kinase alpha-3 (Homo sapiens) (P51812 whole entry): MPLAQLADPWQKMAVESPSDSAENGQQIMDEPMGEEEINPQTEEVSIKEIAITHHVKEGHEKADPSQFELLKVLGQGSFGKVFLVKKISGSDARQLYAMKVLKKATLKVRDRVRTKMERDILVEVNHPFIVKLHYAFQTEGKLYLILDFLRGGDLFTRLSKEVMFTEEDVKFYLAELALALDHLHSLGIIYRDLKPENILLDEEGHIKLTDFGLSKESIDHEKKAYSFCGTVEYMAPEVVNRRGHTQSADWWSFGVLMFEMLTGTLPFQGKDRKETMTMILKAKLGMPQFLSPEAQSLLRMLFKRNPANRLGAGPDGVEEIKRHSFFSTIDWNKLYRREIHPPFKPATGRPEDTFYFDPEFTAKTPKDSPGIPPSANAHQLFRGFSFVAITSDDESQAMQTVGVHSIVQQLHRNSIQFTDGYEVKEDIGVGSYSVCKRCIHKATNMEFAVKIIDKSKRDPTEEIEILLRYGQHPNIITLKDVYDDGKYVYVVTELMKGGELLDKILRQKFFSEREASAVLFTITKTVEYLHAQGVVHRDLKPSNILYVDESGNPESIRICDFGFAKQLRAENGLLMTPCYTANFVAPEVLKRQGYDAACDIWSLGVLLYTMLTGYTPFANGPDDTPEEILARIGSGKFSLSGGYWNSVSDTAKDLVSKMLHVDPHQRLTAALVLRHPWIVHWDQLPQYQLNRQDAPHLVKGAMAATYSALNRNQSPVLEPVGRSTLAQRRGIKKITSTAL
Chain of Phosphatidylinositol 4,5-bisphosphate 3-kinase catalytic subunit alpha isoform (Homo sapiens) (P42336 whole entry, canonical isoform): as the sequence (P42336 whole entry Q546K, canonical isoform) above, with K546Q counted along it

SMILES	residual activity [1] [%]	residual activity [2] [%]	residual activity [3] [%]	residual activity [4] [%]	residual activity [5] [%]	residual activity [6] [%]	residual activity [7] [%]	residual activity [8] [%]	inhibition [9] [%]	residual activity [10] [%]	residual activity [11] [%]	residual activity [12] [%]	residual activity [13] [%]	residual activity [14] [%]	inhibition [15] [%]	residual activity [16] [%]	residual activity [17] [%]	residual activity [18] [%]	residual activity [19] [%]	residual activity [20] [%]	also measured
Cc1nc(C2CCN(C(=O)c3ccc(OC(F)(F)F)cc3N)CC2)c2ncc(N3CCN(C)CC3)cc2n1 [BAY-693]	90	74	100	78	100	92	100	100	-5.65	88	100	98	49	95	20.2	100	73	100	100	100	residual activity [21]: 81%; residual activity [22]: 100%; residual activity [23]: 79%; residual activity [24]: 100%
CN1CCN(c2cnc3c(C4CCN(C(=O)c5ccc(OC(F)(F)F)cc5N)CC4)ncnc3c2)CC1 [BAY-885]	90	78	100	86	85	92	93	100	-4.21	100	100	91	100	100	16.4	100	97	97	100	100	residual activity [21]: 95%; residual activity [22]: 97%; residual activity [23]: 90%; residual activity [24]: 75%
